From US10966990B2, “Midazolam in flexible bags” (InfoRLife SA, priority 2018, dated 2021)

Tests used:
[1] = solubility study of midazolam base in aqueous solution (pH-dependent); format: physicochemical; settings: midazolam 2 mg/mL in a solution of 0.9% NaCl
Description: The solubility of midazolam is less than 0.1 mg/mL at neutral pH and it increases considerably in acidic media. A solubility study has been performed to evaluate the use of midazolam base in the proposed formulation. Since the solubility of midazolam is pH-dependent, the purpose of this study was to evaluate the pH value at which midazolam becomes soluble in aqueous solution. Midazolam at a concentration of 2 mg/mL is soluble in a solution of 0.9% NaCl when the pH reaches a value of about 3.2 pH. The solubility increases at lower pHs. The desired pH of the formulation is about from about 2.5 to about 3.5, preferably 2.8 to 3.2 and more preferably about pH 3. Sufficient acid is added to the solution to achieve the desired pH. Any pharmaceutically acid may be used. Preferably the acid is a pharmaceutically acceptable mineral acid, most preferably hydrochloric acid. If necessary a pharmaceutically acceptable base may be used to raise the pH if needed. The preferred bases are pharmaceutically acceptable inorganic bases such as sodium hydroxide and potassium hydroxide. Sodium hydroxide is the preferred base.

[2] = cited from earlier work
[3] = neutral pH; cited from earlier work

Cc1ncc2n1-c1ccc(Cl)cc1C(c1ccccc1F)=NC2 [Midazolam]
pH value at which midazolam becomes soluble [1]: about 3.2 pH | storage of bag ([2]; isotonic saline IV bag, room temperature): can be stored overnight at room temperature | useful life ([2]; midazolam in lactate Ringer's solution in IV bag): 4 h | solubility of midazolam [3]: less than 0.1 mg/mL
